Several values for one entry are separate records, joined by “and”; a condition that tells them apart may be missing. Equal entries are not always repeated.

A word on the inhibition: it is the drop in the measured response relative to a control, in per cent.

Experiment [1] has as its target T1, retinoic acid receptor (RAR)α (Homo sapiens, UniProt P10276).
T1 construct: RARα (pFA-CMV-hRARα-LBD[104], 1 μM tretinoin); expressed in transfected cells; host or cells: HEK293T
T1 sequence (P10276 183-417 limits assumed): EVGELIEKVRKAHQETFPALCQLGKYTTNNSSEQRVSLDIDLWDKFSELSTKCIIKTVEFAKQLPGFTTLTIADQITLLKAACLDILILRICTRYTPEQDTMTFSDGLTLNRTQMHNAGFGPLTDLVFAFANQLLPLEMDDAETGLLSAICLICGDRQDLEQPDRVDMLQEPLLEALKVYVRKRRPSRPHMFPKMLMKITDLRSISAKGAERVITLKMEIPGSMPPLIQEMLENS
The experiment in a line: Nuclear receptor selectivity profiling, hybrid reporter gene assay, RARα. Format: cell-based. As for the experimental part: Compounds 1–3 were characterized in a hybrid reporter gene assay for their agoniztic effect on human nuclear receptors PPARα/γ/δ, RXRα, FXRα, RARα in HEK293T cells. Compound 1 was tested in an isothermal titration calorimetry (ITC) assay to measure direct binding affinity to the ligand-binding domain of PPARγ. ADME properties were measured in standardized assays at Roche.
(§1) PPAR activation was determined in uniform Gal4-hybrid reporter gene assays for the PPARα, PPARγ and PPARδ isoforms in HEK293T cells (German Collection of Microorganisms and Cell Culture GmbH, DSMZ) which were transiently transfected with pFR-Luc (Stratagene, La Jolla, CA, USA; reporter) and pRL-SV40 (Promega, Madison, WI, USA; internal control) and one pFA-CMV-hPPAR-LBD[97] clone, coding for the hinge region and ligand binding domain of the canonical isoform of human PPARα, PPARγ, PPARδ or respectively. Cells were cultured in Dulbecco’s modified Eagle’s medium (DMEM), high glucose supplemented with 10% fetal calf serum (FCS), sodium pyruvate (1 mM), penicillin (100 U ⋅ ml^-1), and streptomycin (100 μg ⋅ ml^-1) at 37 °C and 5% CO2 and seeded in 96-well plates (3 × 10^4 cells per well). After 24 h, medium was changed to Opti-MEM without supplements and cells were transiently transfected using Lipofectamine LTX reagent (Invitrogen) according to the manufacturer’s protocol. Five hours after transfection, cells were incubated with the test compounds in Opti-MEM supplemented with penicillin (100 U ⋅ ml^-1), streptomycin (100 μg ⋅ ml^-1) and 0.1% DMSO for 16 h before luciferase activity was measured using the Dual-Glo Luciferase Assay System (Promega) according to the manufacturer’s protocol on a Tecan Spark luminometer (Tecan Deutschland GmbH, Germany). Firefly luminescence was divided by Renilla luminescence and multiplied by 1000 resulting in relative light units (RLU) to normalize for transfection efficiency and cell growth. Fold activation was obtained by dividing the mean RLU of a test compound by the mean RLU of the untreated control. All samples were tested in at least three biologically independent experiments in duplicates. For dose-response curve fitting and calculation of EC50 values, the equation “[Agonist] versus response (variable slope—four parameters)” was used in GraphPad Prism (version 7.00, GraphPad Software, La Jolla, CA, USA) with fold activation data. The reference agonizts GW7647 (PPARα)[98],[99], pioglitazone (PPARγ)[100],[101] and L165,041 (PPARδ)[102],[103] were used to validate the assays and to monitor assay performance. Nuclear receptor selectivity profiling was performed with corresponding pFA-CMV-hNR-LBD clones and suitable reference agonizts on RARα (pFA-CMV-hRARα-LBD[104], 1 μM tretinoin), LXRα (pFA-CMV-hLXRα-LBD[104], 1 μM TO901317) and RXRα (pFA-CMV-h RXRα-LBD[105], 1 μM Bexarotene).
On the technique in general: In a reporter assay the amount or activity of a reporter protein is the signal.

In the next experiment the target is PHOSPHODIESTERASE 4D2 (Homo sapiens, UniProt Q08499). In words: Safety off-target panel, enzymatic. In kind it is biochemical. Particulars: single point. An excerpt: (§2) Table S9-S12 list all targets, their species, inhibition (%) and assay type for the experiments conducted in the
(§3) off-targets. […] The numbers for mean
(§4) inhibition (%) represent single point measurements.
(§5) off-targets. […] The numbers for
(§6) mean inhibition (%) represent single point measurements.

A further experiment deals with PHOSPHODIESTERASE 3B (Homo sapiens, UniProt Q13370). In words: Safety off-target panel, enzymatic. Particulars: single point. In kind it is biochemical.
Description: as §2, §3, §4, §5, §6

For experiment [2], the target named is ANGIOTENSIN CONVERTING ENZYME (Homo sapiens, UniProt P12821). In words: Safety off-target panel, enzymatic. In kind it is biochemical. As to conditions: single point.
Description: as §2, §3, §4, §5, §6

A further experiment has as its target GSK-3A (Homo sapiens, UniProt P49840). The experiment in a line: Safety off-target panel, enzymatic. Particulars: single point. Format: biochemical.
Description: as §2, §3, §4, §5, §6

The target of a further experiment is MONOAMINE OXIDASE-A (Homo sapiens, UniProt P21397). The experiment in a line: Safety off-target panel, enzymatic. In kind it is biochemical. As to conditions: single point.
Description: as §2, §3, §4, §5, §6

The target in a further experiment is ACETYLCHOLINESTERASE (Homo sapiens, UniProt P22303). The experiment in a line: Safety off-target panel, enzymatic. Format: biochemical. Particulars: single point.
Description: as §2, §3, §4, §5, §6

The target in a further experiment is CYCLO OXYGENASE 2 (Homo sapiens, UniProt P35354). In words: Safety off-target panel, enzymatic. In kind it is biochemical. As to conditions: single point.
Description: as §2, §3, §4, §5, §6

In a further experiment the target is ABL1 (Homo sapiens, UniProt P00519). The experiment in a line: Safety off-target panel, enzymatic. As to conditions: single point. Format: biochemical.
Description: as §2, §3, §4, §5, §6

Another experiment addresses CDK2 (Homo sapiens, UniProt P24941). In words: Safety off-target panel, enzymatic. In kind it is biochemical. As to conditions: single point.
Description: as §2, §3, §4, §5, §6

Another experiment has as its system HIV-1 PROTEASE
The experiment in a line: Safety off-target panel, enzymatic. As to conditions: 10 µM, single point. Format: biochemical.
Description: as §2, §3, §4, §5, §6

The target of another experiment is T2, liver X receptor (LXR)α (Homo sapiens, UniProt Q13133).
T2 construct: LXRα (pFA-CMV-hLXRα-LBD[104], 1 μM TO901317); expressed in transfected cells; host or cells: HEK293T
T2 sequence (Q13133 209-447 limits assumed): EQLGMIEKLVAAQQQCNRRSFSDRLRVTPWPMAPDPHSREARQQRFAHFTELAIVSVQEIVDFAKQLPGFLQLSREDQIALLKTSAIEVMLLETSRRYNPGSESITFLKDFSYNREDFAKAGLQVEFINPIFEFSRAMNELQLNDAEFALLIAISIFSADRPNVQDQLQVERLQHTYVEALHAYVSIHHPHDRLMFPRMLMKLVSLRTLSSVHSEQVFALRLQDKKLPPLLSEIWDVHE
In words: Nuclear receptor selectivity profiling, hybrid reporter gene assay, LXRα. In kind it is cell-based. As for the experimental part:
as §1

Chain of GSK-3A (P49840 whole entry): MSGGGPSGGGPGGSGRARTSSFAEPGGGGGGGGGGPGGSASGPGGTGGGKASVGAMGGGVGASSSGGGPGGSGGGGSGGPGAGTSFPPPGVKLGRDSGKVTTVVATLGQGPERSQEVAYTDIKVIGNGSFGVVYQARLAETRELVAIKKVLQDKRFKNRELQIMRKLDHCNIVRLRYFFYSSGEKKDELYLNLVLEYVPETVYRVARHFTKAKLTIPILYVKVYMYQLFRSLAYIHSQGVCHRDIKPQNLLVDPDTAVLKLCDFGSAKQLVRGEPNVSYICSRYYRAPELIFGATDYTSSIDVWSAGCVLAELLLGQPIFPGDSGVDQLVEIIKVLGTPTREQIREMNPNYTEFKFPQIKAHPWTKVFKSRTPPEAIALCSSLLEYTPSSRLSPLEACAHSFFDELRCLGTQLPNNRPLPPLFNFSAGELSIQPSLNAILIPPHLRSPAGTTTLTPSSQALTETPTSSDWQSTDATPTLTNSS
Chain of UniProt P22303 (P22303 32-614): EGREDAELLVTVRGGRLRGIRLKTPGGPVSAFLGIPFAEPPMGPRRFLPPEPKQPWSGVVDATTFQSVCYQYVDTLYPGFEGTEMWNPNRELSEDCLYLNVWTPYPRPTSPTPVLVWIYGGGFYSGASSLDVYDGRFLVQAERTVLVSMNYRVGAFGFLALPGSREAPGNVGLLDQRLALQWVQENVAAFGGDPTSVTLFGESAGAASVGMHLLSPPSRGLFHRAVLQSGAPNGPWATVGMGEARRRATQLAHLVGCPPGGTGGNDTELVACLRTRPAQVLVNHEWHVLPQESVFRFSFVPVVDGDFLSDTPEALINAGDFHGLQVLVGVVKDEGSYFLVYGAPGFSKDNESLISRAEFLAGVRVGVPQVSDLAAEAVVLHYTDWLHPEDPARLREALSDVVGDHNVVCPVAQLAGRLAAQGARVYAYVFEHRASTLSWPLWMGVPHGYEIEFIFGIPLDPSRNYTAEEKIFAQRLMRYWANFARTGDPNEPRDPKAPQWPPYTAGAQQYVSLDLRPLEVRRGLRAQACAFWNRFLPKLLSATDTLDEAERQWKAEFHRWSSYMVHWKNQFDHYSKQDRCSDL
Chain of CYCLO OXYGENASE 2 (P35354 18-604): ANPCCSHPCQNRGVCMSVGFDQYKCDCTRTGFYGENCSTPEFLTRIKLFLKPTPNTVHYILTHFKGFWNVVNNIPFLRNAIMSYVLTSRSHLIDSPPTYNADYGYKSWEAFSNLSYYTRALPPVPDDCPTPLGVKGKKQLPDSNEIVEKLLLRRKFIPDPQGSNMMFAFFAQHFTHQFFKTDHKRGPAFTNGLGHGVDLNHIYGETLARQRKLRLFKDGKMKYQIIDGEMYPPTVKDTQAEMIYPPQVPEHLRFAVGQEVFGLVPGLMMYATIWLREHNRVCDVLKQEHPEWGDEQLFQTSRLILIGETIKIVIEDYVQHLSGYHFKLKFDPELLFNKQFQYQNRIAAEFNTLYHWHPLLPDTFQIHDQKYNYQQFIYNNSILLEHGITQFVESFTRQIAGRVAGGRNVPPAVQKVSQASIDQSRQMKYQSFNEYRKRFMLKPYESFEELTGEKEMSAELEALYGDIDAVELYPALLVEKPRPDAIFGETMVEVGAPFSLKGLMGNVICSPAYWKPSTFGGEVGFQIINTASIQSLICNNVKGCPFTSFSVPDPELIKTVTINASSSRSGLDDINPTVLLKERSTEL
Chain of MONOAMINE OXIDASE-A (P21397 whole entry): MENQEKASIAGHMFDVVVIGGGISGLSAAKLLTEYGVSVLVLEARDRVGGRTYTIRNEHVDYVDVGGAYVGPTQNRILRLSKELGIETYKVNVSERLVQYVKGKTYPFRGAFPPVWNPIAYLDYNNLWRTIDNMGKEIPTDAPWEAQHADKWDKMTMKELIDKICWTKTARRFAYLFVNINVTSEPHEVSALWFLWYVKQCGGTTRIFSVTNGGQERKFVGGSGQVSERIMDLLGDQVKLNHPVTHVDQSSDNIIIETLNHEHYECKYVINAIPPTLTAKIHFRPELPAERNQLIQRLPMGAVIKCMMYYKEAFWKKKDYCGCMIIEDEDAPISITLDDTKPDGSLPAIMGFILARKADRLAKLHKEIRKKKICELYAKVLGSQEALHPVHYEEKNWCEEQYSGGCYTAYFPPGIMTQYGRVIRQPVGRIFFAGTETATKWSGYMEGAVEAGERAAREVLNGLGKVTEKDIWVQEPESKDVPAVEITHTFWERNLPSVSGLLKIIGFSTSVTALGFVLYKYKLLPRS
Chain of ABL1 (P00519 whole entry): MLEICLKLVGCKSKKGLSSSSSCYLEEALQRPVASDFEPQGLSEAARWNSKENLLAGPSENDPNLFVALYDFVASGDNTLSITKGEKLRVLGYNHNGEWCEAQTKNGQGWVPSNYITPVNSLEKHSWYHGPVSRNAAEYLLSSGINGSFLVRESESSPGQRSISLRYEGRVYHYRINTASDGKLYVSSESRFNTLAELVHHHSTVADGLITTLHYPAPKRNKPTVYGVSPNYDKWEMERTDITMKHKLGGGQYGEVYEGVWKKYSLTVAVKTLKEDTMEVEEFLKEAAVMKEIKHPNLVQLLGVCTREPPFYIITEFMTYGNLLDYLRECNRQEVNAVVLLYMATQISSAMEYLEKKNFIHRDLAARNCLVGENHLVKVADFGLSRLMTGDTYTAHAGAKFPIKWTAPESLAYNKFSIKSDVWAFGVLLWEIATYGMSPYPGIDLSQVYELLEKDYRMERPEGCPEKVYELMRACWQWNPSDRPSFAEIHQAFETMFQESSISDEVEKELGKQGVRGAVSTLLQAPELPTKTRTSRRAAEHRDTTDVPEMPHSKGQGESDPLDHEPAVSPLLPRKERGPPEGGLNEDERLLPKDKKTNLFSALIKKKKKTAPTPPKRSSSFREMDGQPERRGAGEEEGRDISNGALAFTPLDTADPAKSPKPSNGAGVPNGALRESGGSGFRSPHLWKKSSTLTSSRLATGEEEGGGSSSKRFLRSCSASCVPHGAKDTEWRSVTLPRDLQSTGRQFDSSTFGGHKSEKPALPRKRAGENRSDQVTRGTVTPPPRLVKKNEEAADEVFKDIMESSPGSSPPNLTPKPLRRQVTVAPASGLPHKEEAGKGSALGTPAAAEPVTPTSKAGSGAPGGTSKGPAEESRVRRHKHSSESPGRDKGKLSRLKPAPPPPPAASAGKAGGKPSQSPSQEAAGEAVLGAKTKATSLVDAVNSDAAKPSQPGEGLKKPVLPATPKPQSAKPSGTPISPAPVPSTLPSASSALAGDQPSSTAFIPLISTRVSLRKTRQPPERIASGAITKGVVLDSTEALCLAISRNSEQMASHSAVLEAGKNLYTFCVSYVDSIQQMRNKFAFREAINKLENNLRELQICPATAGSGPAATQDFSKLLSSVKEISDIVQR
Chain of UniProt Q08499 (Q08499 303-809 limits assumed): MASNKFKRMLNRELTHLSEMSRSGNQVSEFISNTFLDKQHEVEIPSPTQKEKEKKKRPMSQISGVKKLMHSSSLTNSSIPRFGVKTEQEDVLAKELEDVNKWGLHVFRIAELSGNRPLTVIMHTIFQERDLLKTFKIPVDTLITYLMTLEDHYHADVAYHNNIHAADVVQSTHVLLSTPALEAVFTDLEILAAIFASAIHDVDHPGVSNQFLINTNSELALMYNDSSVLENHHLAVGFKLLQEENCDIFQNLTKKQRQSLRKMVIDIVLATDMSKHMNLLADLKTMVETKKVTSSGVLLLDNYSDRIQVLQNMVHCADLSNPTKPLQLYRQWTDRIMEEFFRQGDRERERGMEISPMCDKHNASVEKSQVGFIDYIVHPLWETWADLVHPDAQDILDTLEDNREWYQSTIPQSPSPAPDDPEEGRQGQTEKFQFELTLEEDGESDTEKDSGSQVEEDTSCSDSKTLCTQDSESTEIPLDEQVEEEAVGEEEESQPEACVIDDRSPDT
Chain of UniProt Q13370 (Q13370 whole entry): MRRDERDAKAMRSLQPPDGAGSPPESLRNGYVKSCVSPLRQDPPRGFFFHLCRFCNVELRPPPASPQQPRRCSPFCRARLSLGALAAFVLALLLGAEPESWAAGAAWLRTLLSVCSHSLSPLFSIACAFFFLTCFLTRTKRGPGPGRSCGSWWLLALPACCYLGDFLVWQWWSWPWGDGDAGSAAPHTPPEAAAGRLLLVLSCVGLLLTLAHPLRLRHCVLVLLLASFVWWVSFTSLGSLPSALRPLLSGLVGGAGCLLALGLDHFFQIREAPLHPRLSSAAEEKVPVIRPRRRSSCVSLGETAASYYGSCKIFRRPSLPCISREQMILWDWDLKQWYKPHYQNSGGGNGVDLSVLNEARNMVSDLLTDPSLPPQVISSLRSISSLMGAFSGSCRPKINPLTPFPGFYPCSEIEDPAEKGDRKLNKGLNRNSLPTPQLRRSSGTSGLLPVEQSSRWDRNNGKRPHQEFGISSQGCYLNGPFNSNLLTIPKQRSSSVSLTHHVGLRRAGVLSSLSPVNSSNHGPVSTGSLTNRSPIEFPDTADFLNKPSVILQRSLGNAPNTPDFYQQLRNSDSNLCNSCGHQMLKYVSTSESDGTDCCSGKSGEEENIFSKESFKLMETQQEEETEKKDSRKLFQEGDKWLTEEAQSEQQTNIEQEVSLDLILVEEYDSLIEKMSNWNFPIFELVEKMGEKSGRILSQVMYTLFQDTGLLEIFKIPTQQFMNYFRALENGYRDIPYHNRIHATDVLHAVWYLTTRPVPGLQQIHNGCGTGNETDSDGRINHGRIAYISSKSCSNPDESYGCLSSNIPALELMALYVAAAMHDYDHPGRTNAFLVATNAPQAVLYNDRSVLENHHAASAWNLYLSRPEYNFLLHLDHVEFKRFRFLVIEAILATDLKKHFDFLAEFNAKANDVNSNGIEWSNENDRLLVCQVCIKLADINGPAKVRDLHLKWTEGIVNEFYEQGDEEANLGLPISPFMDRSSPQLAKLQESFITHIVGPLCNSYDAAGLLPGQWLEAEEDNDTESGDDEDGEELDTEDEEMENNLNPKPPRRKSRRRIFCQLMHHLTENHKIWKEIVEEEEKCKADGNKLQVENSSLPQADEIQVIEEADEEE

Regarding `COc1ccc(Oc2ccc3ncn(CCOc4ccc(CCC(=O)O)cc4)c3c2)cc1` [Compound 2], the “RARα reporter activation, replicate values (DMSO ctrl = 1,000)” value was 1,038 and 0,832 and 1,499 in experiment [1] (3 µM); 1,361 and 1,194 and 1,664 in experiment [1] (10 µM). The inhibition at 10 µM was -3.8% against PHOSPHODIESTERASE 4D2; -26.7% on PHOSPHODIESTERASE 3B; -44.3% in experiment [2]; -8.8% at GSK-3A; 4.4% at MONOAMINE OXIDASE-A; 2% against ACETYLCHOLINESTERASE. Further, the figures for the inhibition at 10 µM against CYCLO OXYGENASE 2, on ABL1 and against CDK2 were -10.4%, -11% and 45.9%, respectively. Besides, the “Mean inhibition (%)” value with HIV-1 PROTEASE is given as 0.2%. Further, the “LXRα reporter activation, replicate values (DMSO ctrl = 1,000)” value at liver X receptor (LXR)α (3 µM) is 0,566 and 1,566 and 1,418; on liver X receptor (LXR)α (10 µM) it was 1,976 and 2,098 and 2,121.

`Cc1nnc(-c2ccc(OCCCOc3ccc(CCC(=O)O)c(F)c3)c(F)c2)s1` [Compound 1]: the “RARα reporter activation, replicate values (DMSO ctrl = 1,000)” value in experiment [1] (3 µM) was 0,775 and 0,698 and 0,825; in experiment [1] (10 µM), 1,145 and 0,633 and 0,940. Further, the inhibition at 10 µM was 3.1% on PHOSPHODIESTERASE 4D2; 1.4% on PHOSPHODIESTERASE 3B; -11.6% in [2]; 39.6% against GSK-3A; 13.3% against MONOAMINE OXIDASE-A; 0% against ACETYLCHOLINESTERASE. The inhibition at 10 µM at CYCLO OXYGENASE 2 was -21.7%; against ABL1, 4.4%; at CDK2, 3.6%. Also, in the experiment on HIV-1 PROTEASE, the “Mean inhibition (%)” value turned out to be 8.2%. The “LXRα reporter activation, replicate values (DMSO ctrl = 1,000)” value at liver X receptor (LXR)α (3 µM) was 1,029 and 1,028 and 1,248; at liver X receptor (LXR)α (10 µM) it was 3,397 and 1,447 and 1,490.

For the origin of these results see publication PMC11035696, “Prospective de novo drug design with deep interactome learning” (Nature Communications, 2024).
